According to patent US6344479B1, “Method of preventing retinopathy of prematurity in a neonate” (Farmacon-Il, LLC, priority 2001, dated 2002):

Columns and labels:
prematurely born infants = assay: Clinical study: development of retinopathy of prematurity (ROP) in premature neonates given NSAID; type: in vivo, human; settings: for Max ROP grades: data as means per treatment group; for ROP: No (number of neonates without ROP) / ROP: Yes (number of neonates with any ROP): data as numbers of neonates per treatment group, i.v. postnatal treatment, gestation no more than 31 weeks
Procedure: A clinical study was carried out at the Neonatology Unit of University Hospital, Antwerp, Belgium.
Patients and Methods: 229 prematurely born infants were included in the study. All infants were born after a gestation period of no more than 31 weeks and all infants survived for a period of at least 21 days. Prospective serial retinal observation were performed by pediatric ophthalmologist starting at a postmenstrual age of 33 weeks. Evaluation for ROP in both eyes included staging and extension of disease, zone of involvement, number of clock hours, and the presence of any additional disease.

mouse = settings: administered concurrently with the injury phase; normal growth not affected; cited from earlier work

SMILES | Max ROP grades (prematurely born infants) | ROP: No (number of neonates without ROP) (prematurely born infants) | ROP: Yes (number of neonates with any ROP) (prematurely born infants) | Risk of developing ROP (in words) (prematurely born infants; postnatal administration, independently of other studied neonatal risk factors) | Effect on oxygen-induced retinopathy (in words) (mouse)
CC(C)Cc1ccc(C(C)C(=O)O)cc1 (centres unmarked) [Ibuprofen, ibuprofen lysinate] | 0.26 units | 26 | 5 | significantly reduced | 
COc1ccc2c(c1)c(CC(=O)O)c(C)n2C(=O)c1ccc(Cl)cc1 [Indomethacin, indomethacin] | 1 units | 32 | 30 |  | improved oxygen-induced retinopathy
